For this experiment, the target named is T1, human GHRH receptor (hGHRHR) (Homo sapiens, UniProt Q02643).
T1 construct: expressed in transfected cells; host or cells: Human 293 cells
T1 sequence (Q02643 23-423): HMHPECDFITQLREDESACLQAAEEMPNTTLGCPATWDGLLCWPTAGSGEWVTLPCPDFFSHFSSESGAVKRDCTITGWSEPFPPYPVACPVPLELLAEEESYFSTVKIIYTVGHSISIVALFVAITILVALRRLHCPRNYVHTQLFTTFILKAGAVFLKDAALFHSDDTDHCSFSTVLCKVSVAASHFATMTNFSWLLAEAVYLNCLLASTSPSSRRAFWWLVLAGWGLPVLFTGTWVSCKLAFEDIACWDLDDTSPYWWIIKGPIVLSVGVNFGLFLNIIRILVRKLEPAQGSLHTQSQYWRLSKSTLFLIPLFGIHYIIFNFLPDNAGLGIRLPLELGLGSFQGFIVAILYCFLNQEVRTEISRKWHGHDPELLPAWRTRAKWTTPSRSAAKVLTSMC
The experiment can be described thus: GHRHR agonism measured by cAMP (HTRF) in human 293 cells expressing hGHRHR.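 Note: receptor expressed transiently or stably, cells stimulated in serum-free medium, EC50 from a non-linear dose-response fit, maximal response defined by reference GHRH stimulation.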 It counts as cell-based. As to conditions: 30 min at RT. In general terms: In TR-FRET formats the signal depends on donor and acceptor labels being close together.

Each structure is given as a SMILES string. Where a SMILES comes first, the peptide text is derived from it. Bridges are numbered along the chain shown (N, C = ends). [ ]: non-standard residue; d: D form. NMeY = CN[C@@H](Cc1ccc(O)cc1)C(=O)O; R8 = C=CCCCCCC[C@@](C)(N)C(=O)O; S5 = C=CCCC[C@](C)(N)C(=O)O; Nle = CCCC[C@H](N)C(=O)O

The term EC50 denotes the concentration that produces a half-maximal response. A low value points to an effect from little substance. As to `CCCC[C@H](NC(=O)[C@@H](NC(=O)[C@]1(C)CCCC=CCCC[C@](C)(NC(=O)[C@H](CCCNC(=N)N)NC(=O)[C@H](C)NC(=O)[C@H](CO)NC(=O)[C@H](CC(C)C)NC(=O)[C@H](CCC(N)=O)NC(=O)[C@H](C)NC(=O)[C@H](CC(C)C)NC(=O)[C@@H](NC(=O)[C@H](CCCCN)NC(=O)[C@H](CCCNC(=N)N)NC(=O)[C@H](Cc2ccc(O)cc2)NC(=O)[C@H](CO)NC(=O)[C@H](C)NC(=O)[C@@H](NC(=O)[C@H](Cc2ccccc2)NC(=O)[C@@H](NC(=O)[C@H](C)NC(=O)[C@H](CC(=O)O)NC(=O)[C@H](C)NC(=O)[C@H](Cc2ccc(O)cc2)NC)[C@@H](C)CC)[C@@H](C)O)C(C)C)C(=O)N[C@@H](C)C(=O)N[C@@H](CC(C)C)C(=O)N[C@@H](CCC(N)=O)C(=O)N1)[C@@H](C)CC)C(=O)N[C@@H](CO)C(=O)N[C@@H](CCCNC(=N)N)C(N)=O` [SP-18] (H-[NMeY]ADAIFTASYRKVLAQLSAR[S5]ALQ[S5]I[Nle]SR-NH2; staple 21-25), the EC50 lay within 10 to 25 nM.
`CCCC[C@H](NC(=O)[C@@H](NC(=O)[C@H](CC(=O)O)NC(=O)[C@H](CCC(N)=O)NC(=O)[C@H](CC(C)C)NC(=O)[C@H](C)NC(=O)[C@H](CCCCN)NC(=O)[C@H](CCCNC(=N)N)NC(=O)[C@H](C)NC(=O)[C@H](CO)NC(=O)[C@H](CC(C)C)NC(=O)[C@H](CCC(N)=O)NC(=O)[C@H](C)NC(=O)[C@H](CC(C)C)NC(=O)[C@@H](NC(=O)[C@]1(C)CCCC=CCCCCCC[C@@](C)(NC(=O)[C@H](C)NC(=O)[C@H](CC(=O)O)NC(=O)[C@H](C)NC(=O)[C@H](Cc2ccc(O)cc2)NC)C(=O)N[C@@H](Cc2ccccc2)C(=O)N[C@@H]([C@@H](C)O)C(=O)N[C@@H](C)C(=O)N[C@@H](CO)C(=O)N[C@@H](Cc2ccc(O)cc2)C(=O)N[C@@H](CCCNC(=N)N)C(=O)N1)C(C)C)[C@@H](C)CC)C(=O)N[C@@H](CO)C(=O)N[C@@H](CCCNC(=N)N)C(N)=O` [SP-24] (H-[NMeY]ADA[R8]FTASYR[S5]VLAQLSARKALQDI[Nle]SR-NH2; staple 5-12) showed an EC50 of 1 to 10 nM.
With `CCCC[C@H](NC(=O)[C@@H](NC(=O)[C@H](CC(=O)O)NC(=O)[C@H](CCC(N)=O)NC(=O)[C@H](CC(C)C)NC(=O)[C@H](C)NC(=O)[C@H](CCCCN)NC(=O)[C@H](CCCNC(=N)N)NC(=O)[C@H](C)NC(=O)[C@H](CO)NC(=O)[C@H](CC(C)C)NC(=O)[C@H](CCC(N)=O)NC(=O)[C@]1(C)CCCC=CCCCCCC[C@@](C)(NC(=O)[C@@H](NC(=O)[C@H](Cc2ccccc2)NC(=O)[C@@H](NC(=O)[C@H](C)NC(=O)[C@H](CC(=O)O)NC(=O)[C@H](C)NC(=O)[C@H](Cc2ccc(O)cc2)NC)[C@@H](C)CC)[C@@H](C)O)C(=O)N[C@@H](CO)C(=O)N[C@@H](Cc2ccc(O)cc2)C(=O)N[C@@H](CCCNC(=N)N)C(=O)N[C@@H](CCCCN)C(=O)N[C@@H](C(C)C)C(=O)N[C@@H](CC(C)C)C(=O)N1)[C@@H](C)CC)C(=O)N[C@@H](CO)C(=O)N[C@@H](CCCNC(=N)N)C(N)=O` [SP-25] (H-[NMeY]ADAIFT[R8]SYRKVL[S5]QLSARKALQDI[Nle]SR-NH2; staple 8-15), the EC50 fell in the range of 1 to 10 nM.
`CCCC[C@H](NC(=O)[C@@H](NC(=O)[C@H](CC(=O)O)NC(=O)[C@H](CCC(N)=O)NC(=O)[C@H](CC(C)C)NC(=O)[C@H](C)NC(=O)[C@]1(C)CCCC=CCCCCCC[C@@](C)(NC(=O)[C@@H](NC(=O)[C@H](CCCCN)NC(=O)[C@H](CCCNC(=N)N)NC(=O)[C@H](Cc2ccc(O)cc2)NC(=O)[C@H](CO)NC(=O)[C@H](C)NC(=O)[C@@H](NC(=O)[C@H](Cc2ccccc2)NC(=O)[C@@H](NC(=O)[C@H](C)NC(=O)[C@H](CC(=O)O)NC(=O)[C@H](C)NC(=O)[C@H](Cc2ccc(O)cc2)NC)[C@@H](C)CC)[C@@H](C)O)C(C)C)C(=O)N[C@@H](C)C(=O)N[C@@H](CCC(N)=O)C(=O)N[C@@H](CC(C)C)C(=O)N[C@@H](CO)C(=O)N[C@@H](C)C(=O)N[C@@H](CCCNC(=N)N)C(=O)N1)[C@@H](C)CC)C(=O)N[C@@H](CO)C(=O)N[C@@H](CCCNC(=N)N)C(N)=O` [SP-26] (H-[NMeY]ADAIFTASYRKV[R8]AQLSAR[S5]ALQDI[Nle]SR-NH2; staple 14-21) gave an EC50 of 10 to 25 nM.
The result for `CCCC[C@H](NC(=O)[C@@H](NC(=O)[C@H](CC(=O)O)NC(=O)[C@H](CCC(N)=O)NC(=O)[C@H](CC(C)C)NC(=O)[C@]1(C)CCCC=CCCCCCC[C@@](C)(NC(=O)[C@H](CC(C)C)NC(=O)[C@@H](NC(=O)[C@H](CCCCN)NC(=O)[C@H](CCCNC(=N)N)NC(=O)[C@H](Cc2ccc(O)cc2)NC(=O)[C@H](CO)NC(=O)[C@H](C)NC(=O)[C@@H](NC(=O)[C@H](Cc2ccccc2)NC(=O)[C@@H](NC(=O)[C@H](C)NC(=O)[C@H](CC(=O)O)NC(=O)[C@H](C)NC(=O)[C@H](Cc2ccc(O)cc2)NC)[C@@H](C)CC)[C@@H](C)O)C(C)C)C(=O)N[C@@H](CCC(N)=O)C(=O)N[C@@H](CC(C)C)C(=O)N[C@@H](CO)C(=O)N[C@@H](C)C(=O)N[C@@H](CCCNC(=N)N)C(=O)N[C@@H](CCCCN)C(=O)N1)[C@@H](C)CC)C(=O)N[C@@H](CO)C(=O)N[C@@H](CCCNC(=N)N)C(N)=O` [SP-27] (H-[NMeY]ADAIFTASYRKVL[R8]QLSARK[S5]LQDI[Nle]SR-NH2; staple 15-22) reads 1 to 10 nM.
`CCCC[C@H](NC(=O)[C@@H](NC(=O)[C@H](CC(=O)O)NC(=O)[C@H](CCC(N)=O)NC(=O)[C@]1(C)CCCC=CCCCCCC[C@@](C)(NC(=O)[C@H](C)NC(=O)[C@H](CC(C)C)NC(=O)[C@@H](NC(=O)[C@H](CCCCN)NC(=O)[C@H](CCCNC(=N)N)NC(=O)[C@H](Cc2ccc(O)cc2)NC(=O)[C@H](CO)NC(=O)[C@H](C)NC(=O)[C@@H](NC(=O)[C@H](Cc2ccccc2)NC(=O)[C@@H](NC(=O)[C@H](C)NC(=O)[C@H](CC(=O)O)NC(=O)[C@H](C)NC(=O)[C@H](Cc2ccc(O)cc2)NC)[C@@H](C)CC)[C@@H](C)O)C(C)C)C(=O)N[C@@H](CC(C)C)C(=O)N[C@@H](CO)C(=O)N[C@@H](C)C(=O)N[C@@H](CCCNC(=N)N)C(=O)N[C@@H](CCCCN)C(=O)N[C@@H](C)C(=O)N1)[C@@H](C)CC)C(=O)N[C@@H](CO)C(=O)N[C@@H](CCCNC(=N)N)C(N)=O` [SP-28] (H-[NMeY]ADAIFTASYRKVLA[R8]LSARKA[S5]QDI[Nle]SR-NH2; staple 16-23): the EC50 was in the range of 1 to 10 nM.
With `CCCC[C@H](NC(=O)[C@@H](NC(=O)[C@H](CC(=O)O)NC(=O)[C@]1(C)CCCC=CCCCCCC[C@@](C)(NC(=O)[C@H](CCC(N)=O)NC(=O)[C@H](C)NC(=O)[C@H](CC(C)C)NC(=O)[C@@H](NC(=O)[C@H](CCCCN)NC(=O)[C@H](CCCNC(=N)N)NC(=O)[C@H](Cc2ccc(O)cc2)NC(=O)[C@H](CO)NC(=O)[C@H](C)NC(=O)[C@@H](NC(=O)[C@H](Cc2ccccc2)NC(=O)[C@@H](NC(=O)[C@H](C)NC(=O)[C@H](CC(=O)O)NC(=O)[C@H](C)NC(=O)[C@H](Cc2ccc(O)cc2)NC)[C@@H](C)CC)[C@@H](C)O)C(C)C)C(=O)N[C@@H](CO)C(=O)N[C@@H](C)C(=O)N[C@@H](CCCNC(=N)N)C(=O)N[C@@H](CCCCN)C(=O)N[C@@H](C)C(=O)N[C@@H](CC(C)C)C(=O)N1)[C@@H](C)CC)C(=O)N[C@@H](CO)C(=O)N[C@@H](CCCNC(=N)N)C(N)=O` [SP-29] (H-[NMeY]ADAIFTASYRKVLAQ[R8]SARKAL[S5]DI[Nle]SR-NH2; staple 17-24) the figure was 1 to 10 nM; with `CCCC[C@H](NC(=O)[C@@H](NC(=O)[C@]1(C)CCCC=CCCCCCC[C@@](C)(NC(=O)[C@H](CC(C)C)NC(=O)[C@H](CCC(N)=O)NC(=O)[C@H](C)NC(=O)[C@H](CC(C)C)NC(=O)[C@@H](NC(=O)[C@H](CCCCN)NC(=O)[C@H](CCCNC(=N)N)NC(=O)[C@H](Cc2ccc(O)cc2)NC(=O)[C@H](CO)NC(=O)[C@H](C)NC(=O)[C@@H](NC(=O)[C@H](Cc2ccccc2)NC(=O)[C@@H](NC(=O)[C@H](C)NC(=O)[C@H](CC(=O)O)NC(=O)[C@H](C)NC(=O)[C@H](Cc2ccc(O)cc2)NC)[C@@H](C)CC)[C@@H](C)O)C(C)C)C(=O)N[C@@H](C)C(=O)N[C@@H](CCCNC(=N)N)C(=O)N[C@@H](CCCCN)C(=O)N[C@@H](C)C(=O)N[C@@H](CC(C)C)C(=O)N[C@@H](CCC(N)=O)C(=O)N1)[C@@H](C)CC)C(=O)N[C@@H](CO)C(=O)N[C@@H](CCCNC(=N)N)C(N)=O` [SP-30] (H-[NMeY]ADAIFTASYRKVLAQL[R8]ARKALQ[S5]I[Nle]SR-NH2; staple 18-25), 1 to 10 nM.
Compound `CCCC[C@H](NC(=O)[C@]1(C)CCCC=CCCCCCC[C@@](C)(NC(=O)[C@H](CO)NC(=O)[C@H](CC(C)C)NC(=O)[C@H](CCC(N)=O)NC(=O)[C@H](C)NC(=O)[C@H](CC(C)C)NC(=O)[C@@H](NC(=O)[C@H](CCCCN)NC(=O)[C@H](CCCNC(=N)N)NC(=O)[C@H](Cc2ccc(O)cc2)NC(=O)[C@H](CO)NC(=O)[C@H](C)NC(=O)[C@@H](NC(=O)[C@H](Cc2ccccc2)NC(=O)[C@@H](NC(=O)[C@H](C)NC(=O)[C@H](CC(=O)O)NC(=O)[C@H](C)NC(=O)[C@H](Cc2ccc(O)cc2)NC)[C@@H](C)CC)[C@@H](C)O)C(C)C)C(=O)N[C@@H](CCCNC(=N)N)C(=O)N[C@@H](CCCCN)C(=O)N[C@@H](C)C(=O)N[C@@H](CC(C)C)C(=O)N[C@@H](CCC(N)=O)C(=O)N[C@@H](CC(=O)O)C(=O)N1)C(=O)N[C@@H](CO)C(=O)N[C@@H](CCCNC(=N)N)C(N)=O` [SP-31] (H-[NMeY]ADAIFTASYRKVLAQLS[R8]RKALQD[S5][Nle]SR-NH2; staple 19-26) came in with an EC50 of 1 to 10 nM.

For the origin of these results see US20180371044A1, “PEPTIDOMIMETIC MACROCYCLES” (Aileron Therapeutics, Inc., priority 2015, published 2018).
